Laboratory results reported in US20070276037A1, “Cytoprotective Effects of Ethyl Pyruvate” (priority 2003, published 2007).

Key:
[1] = tested on: left ventricular infarction; experiment: Planimetric determination of left ventricular infarction size (TTC/Evans blue); assay type: in vivo, rat; settings: 30 minutes ischemia and 30 minutes reperfusion; n=15; mean ± SEM
myocardial function [2] = experiment: Cardiac function over the course of induced ischemia and reperfusion, percentage of baseline (FIGS. 5-7); assay type: in vivo; settings: p<0.05
Experimental: In order to determine overall effects of ethyl pyruvate on cardiac function, a number of parameters were evaluated over the course of induced ischemia, and reperfusion, as a function of time.

ischemic myocardium = experiment: Myocardial ATP levels (luciferin/luciferase bioluminescence) in acute in vivo ischemia-reperfusion model; design: species or system rat; settings: n=5
myocardial function [3] = experiment: Cardiac functional assessment following ischemia and reperfusion (pressure/volume conductance catheter, flow probe); assay type: in vivo, rat
[4] = tested on: ischemic and nonischemic myocardium; experiment: Myocardial lipid peroxidation measurements after ischemia and reperfusion; assay type: in vivo, rat
[5] = after 30 min ischemia / 30 min reperfusion, n=15
[6] = following ischemia and reperfusion, n=15, mean ± SEM, FIG. 8
[7] = 30 min ischemia / 30 min reperfusion, n=6, FIG. 2, mean ± SEM

## CCOC(=O)C(C)=O [ethyl pyruvate]
[1]
  Left ventricular area at risk infarcted (infarction area/area at risk): 25.3%±1.5
Myocardial function [2]; after 8 minutes of ischemia and throughout reperfusion, FIG. 6
  dP/dtmax (contractility) as percentage of baseline, versus controls: significantly greater
Myocardial function [2]; throughout ischemia and reperfusion, FIG. 5
  Maximum left ventricular (LV) pressure as percentage of baseline, versus controls: significantly greater
Myocardial function [2]; throughout ischemia and reperfusion, FIG. 7
  Cardiac output as percentage of baseline, versus controls: significantly greater
Ischemic myocardium; 10 minutes after initiation of ischemia, 1.5 mL/kg iv bolus of 28 mmol/L ethyl pyruvate in Ringer's, mean ± SEM
  ATP level in ischemic region of heart: 87.6 ± 29.2 nmol/g
Ischemic myocardium; ischemic myocardium 10 minutes after initiation of ischemia, FIG. 1
  ATP levels versus controls: Significantly higher levels of ATP
Myocardial function [3]; FIG. 8
  Myocardial function (end systolic pressure volume relationships) versus control animals: significantly improved myocardial function
Myocardial function [3]; [5]
  Cardiac output: 26.7 ± 0.9 mL/min
  Ejection fraction: 41.9 ± 3.8%
  Heart rate: 183 ± 9.5 bpm
  Maximum dP/dt: 3518 + 243 mm Hg/s
  Maximum pressure: 86.6 ± 2.9 mm Hg
  Minimum dP/dt: 2841 + 329 mm Hg/s
Myocardial function [3]; [6]
  ESPVR slope: 1.09±0.22
  ESPVR x-axis intercept (x-int): 4.1±19.9
Myocardial function [3]; regression composite, n=15, FIG. 8
  Composite ESPVR: 1.08 (ESV-4.0B)
[4]; [7]
  Lipid peroxide level, ischemic myocardium: 63.8 ± 3.3 nmol/g
  Lipid peroxide level, nonischemic myocardium: 42.3 ± 4.8 nmol/g
[4]; n=5, FIG. 3, mean ± SEM
  Lipid peroxide level, ischemic myocardium: 70.4 ± 2.6 nmol/g
[4]; n=6, FIG. 2
  Lipid peroxidation in ischemic myocardium versus control hearts: decreased the level of lipid peroxidation
  Lipid peroxidation in remote nonischemic myocardium versus control: equivalent
